# From US20250248393A1, “METHOD OF RELEASING A SEMIOCHEMICAL IN THE ENVIRONEMENT BY PASSIVE DIFFUSION, SYSTEM AND MEANS, ESPECIALLY STICKS, TO THIS END, AND USES THEREOF” (SIGNS, priority 2024, published 2025)
# Tests used:
# Assay type in all cases: physicochemical
# [1] = DAP PCDS direct diffusion (SPME-GC/MS); settings: DAP/PCDS diffuser, 40 mL, 6 capillaries
# Experimental: Three diffusers, each containing 40 mL of solution and 6 capillaries, were prepared and diffused. The first points were measured at T=1d, T=2, and T=3d, then every Monday, Wednesday and Friday of each study week until the diffusers no longer contained any solution. To measure the pheromone released into the air at each study time, the diffuser is first weighed (with the sticks) to measure mass loss, then placed in an enclosed area (in this case, an upside-down aquarium) containing a SPME fiber, as shown in FIG. 24.
# The fiber is left to diffuse above the diffuser for 2 hours (a time determined in a previous method development as the optimum time for molecules to adsorb to the phase), then analyzed using the gas chromatography/mass spectrometry (GC/MS) technique.
# Three diffusers were studied for greater accuracy. The chromatograms obtained are reprocessed using GC/MS Solution software.
# For each chromatographic peak, the area is recorded using GC/MS Solution software, then entered into an Excel spreadsheet. Diffusion curves giving the area of the chromatographic peak corresponding to each active ingredient as a function of time are then plotted.
# Analyses were carried out by gas chromatography/mass spectrometry (GC/MS). The instrument was a Shimadzu GCMS QP2010SE® equipped with an AOC 6000® autosampler. Separation was carried out on a ZB-FFAP® column (30 m×0.25 mm×0.25 μm, stationary phase: nitroterephthalic acid-modified polyethylene glycol) supplied by Phenomenex. The furnace temperature was initially set at 80° C. for 1 minute, then increased at 10° C./min to 240° C. and maintained at this temperature for 2 minutes. The carrier gas was helium at a flow rate of 1 mL/min. Analysis time is 19 minutes.
# The injector is a split/splitless injector used in split mode (temperature: 250° C., split: 50:1). The SPME fiber was injected directly into the injector and left to desorb for 15 minutes.
# The separated molecules were detected using a mass spectrometer equipped with an electron impact source (temperature: 200° C.). The analyzer is a simple quadrupole. The interface temperature is 250° C. Data were acquired in FASST mode (Fast automated SCAN/SIM type), i.e. part of the analysis was performed by scanning all ions (SCAN) and part by selecting specific ions (SIM). Target molecules were thus analyzed using ion selection.
# [2] = F3 migration along the stick (top 1 cm, GC/MS); settings: F3, five sticks
# Experimental: Three devices containing 40 mL of F3 feline facial pheromone product and five […] sticks were prepared and left on diffusion. A t=1 day, T=3 days, T=10 days, T=15 days and T=22 days after preparation of the devices, one stick was taken on each device and 1 cm of the top of each stick was cut, then extracted with acetone 1 h in an ultrasonic bath and analysed by gas chromatography coupled with mass spectrometry (GC/MS). The same analytical parameters were used for the study C with a liquid injection (injected quantity: […]) Blank analysis and matrix blank analysis were also performed.
# [3] = Direct diffusion of diffuser blocks (SPME GC/MS); settings: despecified pheromone 2%, 4 weeks
# Experimental: Analyses were carried out using gas chromatography (GC) coupled to a mass spectrometer (MS) detector, a technique commonly referred to as GCMS. The molecules of interest were extracted using the Solid Phase Micro-Extraction (SPME) technique. The instrument used was the following: QP2010SE® from Shimadzu (See FIG. 4).
# AOC 6000® automatic feeder • Extraction/SPME fiber: polyacrylate/Fused silica (85 μm), 23 Ga. • Adsorption time: 2 hours (exposure time of fiber above block) (See FIG. 4) • Desorption time: 30 minutes (fiber exposure time in injector) • Fiber-block distance: 2 cm • Injection: split/splitless injector • Temperature: 250° C., split 50 mode. • Separation: ZB-FFAP® column (Phénomenex), length: 30 m, diameter: 250 μm, film thickness: […]
# • Carrier gas: Helium (He) • Analysis time: 18 min (not including time to return to equilibrium between each analysis injection • Detection: mass spectrometer with electron impact source/analyzer: quadrupole. • Source temperature: 200° C. • Interface temperature: 250° C. • Scan m/z 50 to m/z 500 • SIM with ions 55, 66 and 74.
# Analyses were carried out in triplicate to verify reproducibility of results.
# With the SPME method, results are evaluated by measuring the chromatographic peak area. The data have been plotted on diffusion curve (see FIGS. 5 and 6).
# [4] = Indirect assay of rod diffuser solution (GC/FID); settings: stick diffuser solution, despecified pheromone
# Experimental: Solution integrity was checked at each analysis time. Before each indirect assay, the vial was weighed to visualize mass loss over time. Each vial contained six sticks. • Specifications: the solution must lose mass over time. • Result: Compliant—See FIG. 9 This is the same analytical method as for the diffuser block study, only the sample preparation differs. 1.25 g of solution were weighed into a 25 mL volumetric flask and the volume made up to the mark with acetone. The resulting solution is transferred to a 1.5 mL GC vial for analysis. This is exactly the same calibration range as for the diffuser block study.
# [5] = F3 direct diffusion and mass loss, 40 mL and eight sticks with a refill; settings: F3, eight sticks
# Experimental: To that purpose, three devices containing 40 mL of F3 feline facial pheromone product and eight rattan sticks were prepared and left on diffusion. Every Monday, Wednesday and Friday, the diffusion of the pheromone in air was checked by analysis by gas chromatography coupled with mass spectrometer (GC/MS) and SPME (solid phase microextraction) until there was no liquid left. Then, the solution was refilled and a second study of the diffusion of the pheromone was performed.
# Experimentally, the studied device was taken and placed into a closed space under identical conditions than in section E/, and for analyzing the same data.
# Each measuring day, the devices were weighed and the level of the solution in the flask was controlled.
direct diffusion over time [1],direct diffusion from the diffuser block [3],% of the active ingredient in the pheromone ([4]; day 0),% of the active ingredient in the pheromone ([4]; day 7),% of the active ingredient in the pheromone ([4]; day 14),% of the active ingredient in the pheromone ([4]; day 21),intensity of direct diffusion [5],SMILES,quantity on the top of the stick over time [2],relative quantity on the top of the stick [2]
slight increase over time,lowest intensity,30.8%,30.8%,30.7%,30.8%,less intensity,"CCCCCCCC/C=C\CCCCCCCC(=O)OC [methyl oleate, methyl (Z)-octadec-9-enoate]",more pronounced increase of their quantities over time,major compound found on the top of the stick
slight increase over time,diffuse better,27.3%,27.3%,27.2%,26.2%,less intensity,"CCCCCCCCCCCCCCCC(=O)OC [methyl palmitate, methyl hexadecanoate]",more pronounced increase of their quantities over time,–
